This note sets out measurements from patent US6878689B2, “Preventives or remedies for heart failure” (Kaken Pharmaceutical Co., Ltd., priority 2000, dated 2005).

Where a SMILES comes first, the peptide text is derived from it. [ ]: non-standard residue; d: D form. d2Nal = N[C@H](Cc1ccc2ccccc2c1)C(=O)O

The test system of the experiment is papillary muscle of guinea-pig. Nature of the experiment: Myocardial contractility (developed tension) in isolated, electrically driven papillary muscle of guinea-pig. The conditions noted are these: cumulative 10, 30 and 100 μM; n=5; FIG. 1. The method, then: [Test Example 1] Myocardial Contractility Enhancing Action of Pralmorelin in the Papillary Muscle of Guinea-Pig
The direct effect of pralmorelin on myocardial contractility was evaluated using the isolated cardiac muscle of guinea-pigs according to the standard method for evaluating myocardial contractility. • 1. Materials and Experimental Method • 1) Animal Used
Male Hartley guinea-pigs (body weight, 301-350 g; Japan SLC) were purchased. The animals were accommodated to an environment at a temperature of 23±2° C. and a humidity of 55±15% under 12-hr light/dark cycles while they were allowed to eat and drink water ad libitum until they weighed 360-480 g. Each test substance was tested on a group of five animals. • 2) Reagents Used
The test substances were pralmorelin dihydrochloride (KP-102), representatives of growth hormone secretagogues such as hexarelin, ghrelin and ibutamorelin methanesulfonate (the last being hereunder referred to as MK-0677) (which were prepared by the method described in JP 6-263737 A (kokai)), as well as a recombinant human growth hormone (Sumitomo Pharmaceutical) and amrinone (Sigma) which is a known therapeutic of acute heart failure. KP-102, hexarelin and MK-0677 were dissolved in distilled water. Ghrelin was dissolved in physiological saline. Amrinone was first dissolved in dimethyl sulfoxide and then diluted with physiological saline. The growth hormone was dissolved in a dedicated solubilizer (0.3 w/v % metacresol and 3.9 w/v % D-mannitol). None of the test substance solutions should be added in an amount exceeding 1 w/v %. All reagents other than the test substances were guaranteed products of Nacalai Tesque. • 3) Preparing Specimens of the Isolated Papillary Muscle
The guinea-pigs were stunned with a blow to the back of their head; thereafter, the carotid artery was incised and the animals were exsanguinated to death. The chest was opened, the blood vessels in the upper part of the heart were cut and the heart was removed. The heart was immediately transferred into a Krebs-Henseleit (K-H) nutrient solution (NaCl, 118.0 mM; KCl, 4.7 mM; CaCl2. 2H2O, 1.0 mM; KH2PO4, 1.2 mM; MgSO4.7H2O, 1.2 mM; NaHCO3, 25.0 mM; glucose, 11.0 mM) that had been fully aerated with 95% O2-5% CO2. The heart was fixed on a rubber-lined Petri dish with needles such that its front face was seen. The ventricular wall of the upper right ventricle (toward the atrium) was excised transversely along the atrium, then excised longitudinally along the interventricular septum so that the ventricular wall was opened to expose the right ventricular papillary muscle. Subsequently, the entire surface of the left ventricle was cut open from the aorta (down) to the apex and the anterior wall of the left ventricle was opened wide, to both right and left, and fixed to expose the papillary muscle of the left ventricle. The tricupsid or mitral valve was cut off from the ventricle and the papillary muscle was cut off at the base to prepare a specimen of papillary muscle. The base of the specimen was fixed to field stimulating electrodes in an organ bath filled with 15 mL of the nutrient solution. The tendinous cord adhering to the valve was tied up with a thread and connected to an FD pickup (TB-612T, Nihon Kohden). A resting tension of 0.5 g was loaded and the papillary muscle was driven with an electric stimulator (SEN-3201, Nihon Kohden) at a frequency of 1 Hz by pulses of 20-ms duration and at a voltage intensity about 1.2 times the threshold. After an equilibration period of about 1 hr, KP-102, hexarelin and amrinone were each applied cumulatively up to amounts of 10, 30 and 100 μM. After examination of the changes in inotropic action due to the application of the test substances, 12.5 mM of CaCl2 was added and the maximum tension that was developed by each specimen was obtained. […]

Regarding `C[C@H](NC(=O)[C@@H](Cc1ccc2ccccc2c1)NC(=O)[C@@H](C)N)C(=O)N[C@@H](Cc1c[nH]c2ccccc12)C(=O)N[C@H](Cc1ccccc1)C(=O)N[C@@H](CCCCN)C(N)=O` [KP-102, D-alanyl-3-(naphthalen-2-yl)-D-alanyl-L-alanyl-L-tryptophyl-D-phenylalanyl-L-lysinamide] (H-[dA][d2Nal]AW[dF]K-NH2), the “tension development (positive inotropic action) vs baseline” value is on record as “significant effect over the baseline value”.
